Assay results from US20080220069A1, “Long Acting Injectable Crystal Formulations of Estradiol Metabolites and Methods of Using Same” (PR PHARMACEUTICALS, INC., priority 2004, published 2008).

Experiments:
[1] = room temperature
[2] = In vivo pharmacokinetics of altered crystal form (hemi hydrate) of 2ME (Example 6); settings: rat, 5 mg/rat subcutaneous, hemi hydrate crystals approx. 10 μm, by day 28
Experimental: A solution of 2-methoxyestradiol (2ME) (Tetrionics, Madison, Wis.) was made in n-methylpyrrolidone at a 10% w/v concentration. One volume of the 2ME solution was added to 1000 volumes of water stirring rapidly at 23° C. The mixture was allowed to stir prior to the addition of sodium dodecyl sulfate (SDS) to a final concentration of 0.1% w/v. The 2ME was collected by sedimentation and washed twice with 0.1% SDS.
(§1) On day 0, each animal in the treatment group (n=6) received 5 mg/rat of 2ME in 0.25 ml injection vehicle consisting of 0.5% w/v sodium carboxymethylcellulose containing 5% w/v mannitol and 0.05% w/v SDS by subcutaneous injection using a 1 cc syringe and a 1 inch, 20-gauge needle. On Day—3 blood was collected from all rats via the tail vein. Rats were bled periodically via the lateral tail vein. Plasma samples were extracted, derivatized, and 2ME concentration was measured using a qualified gas chromatography-mass spectroscopy detection method. Plasma concentrations versus time are plotted in FIG. 2.

[3] = In vivo pharmacokinetics of 2ME crystal preparation with broad size distribution (Example 2), plasma 2ME by gas chromatography-mass detection; settings: rat, 5 mg/rat subcutaneous
Experimental: The material generated in Example 1 was ground in a mortar and pestle, sieved through a 180 um screen, and the particle size distribution of the sieved material was measured on a Coulter LS13320 Particle Size analyzer.
On day 0, animals in all treatment groups received 5 mg/rat of 2ME in 0.25 ml injection vehicle consisting of 2.0% w/v sodium carboxymethylcellulose containing 0.01% w/v Tween 80 and 0.1% w/v SDS by subcutaneous injection using a 1 cc syringe and a 1″, 20-gauge needle. On Day—3 blood was collected from all rats via the tail vein. On Days 1, 3, 7, 21, 28, and 35, all rats were bled via the lateral tail vein. Plasma samples were extracted, derivatized, and 2ME concentration was measured using a qualified gas chromatography-mass detection method. The plasma concentration profile of 2ME released from crystals with a broad size distribution is characterized by an initial burst followed by sustained blood levels of approximately 5 ng/ml between days 3 and 28.

[4] = In vivo pharmacokinetics of 2ME particles ranging from 90 to 180 micrometers (Example 7); settings: rat, 5 mg/rat subcutaneous, particles 90 to 180 micrometers
Experimental: as §1, with “A portion of the 2-methoxyestradiol prepared in Example 1 was ground in a mortar and pestle and sieved through stainless steel screens to generate a population of particles ranging from 90 to 180 micrometers. On day” for “On day”, “in FIG. 3.” for “in FIG. 2.”

[5] = rat, 16 mg subcutaneous in 2.5% w/v sodium carboxymethylcellulose, after 15 days

C[C@]12CC[C@@H]3c4cc(O)c(O)cc4CC[C@H]3[C@@H]1CC[C@@H]2O [2-hydroxyestradiol]
water solubility [1]: approximately 0.155 mg/ml

COc1cc2c(cc1O)CC[C@@H]1[C@@H]2CC[C@]2(C)[C@@H](O)CC[C@@H]12 [2ME, 2-methoxyestradiol]
plasma 2ME concentrations [2]: fallen to zero
sustained blood levels of 2ME ([3]; crystals 48.98±36.95 μm, between days 3 and 28): approximately 5 ng/ml
2ME blood levels ([3]; crystals 48.98±36.95 μm, by day 35): fallen to zero
plasma concentration profile, initial phase ([3]; crystals with a broad size distribution): initial burst
2ME in plasma ([4]; day 51): still measurable
initial plasma concentrations ([4]; first week): low initial plasma concentrations

COc1cc2c(cc1OC(=O)c1ccccc1)CC[C@@H]1[C@@H]2CC[C@]2(C)[C@@H](O)CC[C@@H]12 [3-benzoyl-2-methoxyestradiol]
water solubility of the esterified compound, fold lower than parent estradiol metabolite ([1]; same conditions as parent): approximately 3 fold
release of the injected dose (chromatographic analysis of dissected injection site) [5]: 6.2%±1.2
